Data from ChEMBL document CHEMBL6182949 (J Med Chem, 2025).
Calls of active or inactive are those of the source. The rule behind the calls is not given here.

How the values were obtained:
[1] = target: T1, Interleukin-1 receptor-associated kinase 4 (Homo sapiens, UniProt Q9NWZ3); assay: Inhibition of IRAK4 (unknown origin)
T1 sequence (Q9NWZ3 whole entry): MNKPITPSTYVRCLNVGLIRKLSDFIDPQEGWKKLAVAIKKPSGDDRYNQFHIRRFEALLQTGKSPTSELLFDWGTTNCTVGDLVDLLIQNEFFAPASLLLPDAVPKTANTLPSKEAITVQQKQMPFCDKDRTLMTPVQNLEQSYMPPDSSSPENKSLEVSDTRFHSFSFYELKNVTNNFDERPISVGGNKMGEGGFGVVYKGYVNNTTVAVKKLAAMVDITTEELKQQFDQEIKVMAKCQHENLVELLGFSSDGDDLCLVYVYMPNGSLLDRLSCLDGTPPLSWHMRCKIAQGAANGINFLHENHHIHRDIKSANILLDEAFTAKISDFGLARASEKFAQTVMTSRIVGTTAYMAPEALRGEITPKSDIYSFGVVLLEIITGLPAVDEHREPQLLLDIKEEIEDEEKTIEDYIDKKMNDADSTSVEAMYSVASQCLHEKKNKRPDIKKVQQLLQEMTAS

[2] = test system: Mus musculus; assay: Anti-arthritic activity against collagen-induced arthritis DBA/1 mouse model assessed as reduction in pathological score at 30 mg/kg, po administered for 14 days; format: functional, organism-based; settings: time 14.0 day
[3] = AUClast in male C57BL/6 mouse at 2 mg/kg, iv measured up to 24 hrs by LC-MS/MS analysis; format: ADME, organism-based; settings: in vivo
[4] = Metabolic stability in human liver microsome assessed as half life at 1 uM measured up to 60 mins in presence of NADPH by LC-MS/MS analysis; format: ADME; settings: liver microsomes
[5] = target: T2, hERG (KCNH2) (Homo sapiens, UniProt Q12809); assay: Inhibition of hERG expressed in HEK293 cells at 1 uM by manual patch clamp assay relative to control; format: toxicity, cell-based; settings: HEK293 cells expressing hERG
[6] = Half life in male C57BL/6 mouse at 10 mg/kg, po measured up to 24 hrs by LC-MS/MS analysis; format: ADME, organism-based; settings: in vivo
[7] = Volume of distribution at steady state in male C57BL/6 mouse at 2 mg/kg, iv measured up to 24 hrs by LC-MS/MS analysis; format: ADME, organism-based; settings: in vivo, read-out: Vdss
[8] = Tmax in male C57BL/6 mouse at 10 mg/kg, po measured up to 24 hrs by LC-MS/MS analysis; format: ADME, organism-based; settings: in vivo
[9] = Metabolic stability in dog liver microsome assessed as half life at 1 uM measured up to 60 mins in presence of NADPH by LC-MS/MS analysis; format: ADME, Canis lupus familiaris; settings: liver microsomes
[10] = Half life in male C57BL/6 mouse at 2 mg/kg, iv measured up to 24 hrs by LC-MS/MS analysis; format: ADME, organism-based; settings: in vivo
[11] = Cmax in male C57BL/6 mouse at 2 mg/kg, iv measured up to 24 hrs by LC-MS/MS analysis; format: ADME, organism-based; settings: in vivo
[12] = Oral bioavailability in male C57BL/6 mouse at 10 mg/kg measured up to 24 hrs by LC-MS/MS analysis; format: ADME, organism-based; settings: in vivo
[13] = AUClast in male C57BL/6 mouse at 10 mg/kg, po measured up to 24 hrs by LC-MS/MS analysis; format: ADME, organism-based; settings: in vivo
[14] = Metabolic stability in mouse liver microsome assessed as half life at 1 uM measured up to 60 mins in presence of NADPH by LC-MS/MS analysis; format: ADME; settings: liver microsomes
[15] = target: T3, Protein cereblon/Interleukin-1 receptor-associated kinase 4 (Homo sapiens, UniProt Q9NWZ3+Q96SW2); assay: PROTAC activity at CRBN/IRAK4 in human THP-1 cells assessed as induction of IRAK4 degradation incubated for 24 hrs by HiBiT lytic reagent based analysis relative to control; format: cell-based
Target sequence in this assay (Q96SW2 whole entry, looked up, one chain of several): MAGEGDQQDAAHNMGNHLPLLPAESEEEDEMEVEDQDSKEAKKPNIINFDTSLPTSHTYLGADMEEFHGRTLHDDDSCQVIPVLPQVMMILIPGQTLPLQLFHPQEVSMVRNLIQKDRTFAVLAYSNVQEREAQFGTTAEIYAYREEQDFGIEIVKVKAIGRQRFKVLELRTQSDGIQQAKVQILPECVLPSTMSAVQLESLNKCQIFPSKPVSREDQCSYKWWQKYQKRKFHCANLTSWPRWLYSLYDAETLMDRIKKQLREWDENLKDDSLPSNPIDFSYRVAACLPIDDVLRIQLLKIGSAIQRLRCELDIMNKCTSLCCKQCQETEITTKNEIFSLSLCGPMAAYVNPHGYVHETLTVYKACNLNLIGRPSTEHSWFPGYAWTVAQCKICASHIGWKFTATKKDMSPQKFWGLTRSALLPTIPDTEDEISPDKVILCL

[16] = target: T3, Protein cereblon/Interleukin-1 receptor-associated kinase 4; assay: PROTAC activity at CRBN/IRAK4 in human THP-1 cells assessed as induction of IRAK4 degradation incubated for 24 hrs by HiBiT lytic reagent based analysis; format: cell-based
Target sequence in this assay (Q96SW2 whole entry, one chain of several): as the sequence (Q96SW2 whole entry, looked up, one chain of several) above

[17] = Cmax in male C57BL/6 mouse at 10 mg/kg, po measured up to 24 hrs by LC-MS/MS analysis; format: ADME, organism-based; settings: in vivo
[18] = Clearance in male C57BL/6 mouse at 2 mg/kg, iv measured up to 24 hrs by LC-MS/MS analysis; format: ADME, organism-based; settings: in vivo
[19] = target: Voltage-gated inwardly rectifying potassium channel KCNH2 (Homo sapiens, UniProt Q12809); assay: Inhibition of hERG expressed in HEK293 cells by manual patch clamp assay; format: toxicity, cell-based; parameters: concentration or dose not given beside the values
[20] = Metabolic stability in rat liver microsome assessed as half life at 1 uM measured up to 60 mins in presence of NADPH by LC-MS/MS analysis; format: ADME; settings: liver microsomes
[21] = Metabolic stability in cynomolgus monkey liver microsome assessed as half life at 1 uM measured up to 60 mins in presence of NADPH by LC-MS/MS analysis; format: ADME, Macaca fascicularis; settings: liver microsomes
[22] = AUClast in Sprague-Dawley rat at 2 mg/kg, iv measured up to 24 hrs by LC-MS/MS analysis; format: ADME, organism-based; settings: in vivo
[23] = target: T2, hERG (KCNH2); assay: Inhibition of hERG expressed in HEK293 cells at 3 uM by manual patch clamp assay relative to control; format: toxicity, cell-based; settings: HEK293 cells expressing hERG
[24] = Volume of distribution at steady state in Sprague-Dawley rat at 2 mg/kg, iv measured up to 24 hrs by LC-MS/MS analysis; format: ADME, organism-based; settings: in vivo, read-out: Vdss
[25] = Clearance in Sprague-Dawley rat at 2 mg/kg, iv measured up to 24 hrs by LC-MS/MS analysis; format: ADME, organism-based; settings: in vivo
[26] = AUClast in Sprague-Dawley rat at 10 mg/kg, po measured up to 24 hrs by LC-MS/MS analysis; format: ADME, organism-based; settings: in vivo
[27] = Oral bioavailability in Sprague-Dawley rat at 10 mg/kg measured up to 24 hrs by LC-MS/MS analysis; format: ADME, organism-based; settings: in vivo
[28] = Tmax in Sprague-Dawley rat at 10 mg/kg, po measured up to 24 hrs by LC-MS/MS analysis; format: ADME, organism-based; settings: in vivo
[29] = Cmax in Sprague-Dawley rat at 10 mg/kg, po measured up to 24 hrs by LC-MS/MS analysis; format: ADME, organism-based; settings: in vivo
[30] = Half life in Sprague-Dawley rat at 10 mg/kg, po measured up to 24 hrs by LC-MS/MS analysis; format: ADME, organism-based; settings: in vivo
[31] = Cmax in Sprague-Dawley rat at 2 mg/kg, iv measured up to 24 hrs by LC-MS/MS analysis; format: ADME, organism-based; settings: in vivo
[32] = Half life in Sprague-Dawley rat at 2 mg/kg, iv measured up to 24 hrs by LC-MS/MS analysis; format: ADME, organism-based; settings: in vivo

T2 sequence (Q12809 whole entry): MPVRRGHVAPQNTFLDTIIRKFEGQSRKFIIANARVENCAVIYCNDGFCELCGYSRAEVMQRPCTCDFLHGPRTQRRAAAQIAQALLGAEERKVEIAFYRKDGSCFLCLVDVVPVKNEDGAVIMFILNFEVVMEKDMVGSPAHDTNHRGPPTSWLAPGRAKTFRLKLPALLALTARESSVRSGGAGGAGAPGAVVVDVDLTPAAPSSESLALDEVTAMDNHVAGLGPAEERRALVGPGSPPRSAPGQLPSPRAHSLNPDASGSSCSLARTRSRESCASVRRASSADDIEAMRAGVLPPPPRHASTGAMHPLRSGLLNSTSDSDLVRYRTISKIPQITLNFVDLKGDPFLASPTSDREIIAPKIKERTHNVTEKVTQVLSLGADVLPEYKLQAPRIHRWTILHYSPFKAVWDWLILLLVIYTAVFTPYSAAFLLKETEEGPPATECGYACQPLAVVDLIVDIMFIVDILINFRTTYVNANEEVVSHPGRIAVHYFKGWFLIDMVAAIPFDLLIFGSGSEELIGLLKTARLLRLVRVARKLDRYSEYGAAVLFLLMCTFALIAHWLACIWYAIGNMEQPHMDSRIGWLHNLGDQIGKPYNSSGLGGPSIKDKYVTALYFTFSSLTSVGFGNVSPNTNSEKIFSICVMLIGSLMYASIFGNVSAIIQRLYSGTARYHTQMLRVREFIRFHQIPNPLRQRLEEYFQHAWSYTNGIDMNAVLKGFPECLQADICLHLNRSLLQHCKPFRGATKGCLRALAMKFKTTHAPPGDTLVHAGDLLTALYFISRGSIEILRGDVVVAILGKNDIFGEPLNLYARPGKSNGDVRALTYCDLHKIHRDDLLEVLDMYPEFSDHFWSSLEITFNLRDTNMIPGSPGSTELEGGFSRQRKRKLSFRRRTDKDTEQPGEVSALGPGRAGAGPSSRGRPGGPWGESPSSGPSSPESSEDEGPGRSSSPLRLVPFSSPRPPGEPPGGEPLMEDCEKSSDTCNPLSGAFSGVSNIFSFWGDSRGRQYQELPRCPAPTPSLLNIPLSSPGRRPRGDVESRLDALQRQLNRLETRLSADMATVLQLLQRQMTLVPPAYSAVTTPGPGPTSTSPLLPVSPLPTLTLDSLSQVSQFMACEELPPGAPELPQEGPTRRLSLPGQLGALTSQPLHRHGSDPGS
Chain of Voltage-gated inwardly rectifying potassium channel KCNH2 (Q12809 whole entry): as above

With `CN1CCC2(CC1)Cc1cc(NC(=O)c3cnn4cccnc34)c(N3CCC(CO)CC3)cc1O2` the IC50 [1] was 0.91 nM.

In the case of `C[C@@H]1CCN(C(=O)CC#N)C[C@@H]1N(C)c1ncnc2[nH]ccc12`, the Activity [2] is reported as “Active”.

With `Cn1c(=O)n(C2CCC(=O)NC2=O)c2cccc(C#CCO[C@H]3CC[C@H](CN4CCC5(CC4)Cc4cc(NC(=O)c6cnc7cccnn67)c(N6CCC(CO)CC6)cc4O5)CC3)c21` (some centres undefined) the AUC(0-t) at 24 h [3] was 3.19 µg·h/mL, the half-life at 1 µM [4] was > 3.07 h and the inhibition at 1 µM [5] was 15%. The half-life [6] was 4.4 h, the Vd [7] was 1.66 L/kg and the Tmax [8] was 2 h. The half-life at 1 µM [9] was > 3.07 h, the half-life [10] was 9.75 h and the Cmax [11] was 1.23 µg/mL. The bioavailability [12] was 54%, the AUC(0-t) at 24 h [13] was 7.39 µg·h/mL and the half-life at 1 µM [14] was > 3.07 h. The Emax [15] was 90%, the DC50 [16] was 4.06 nM and the Cmax [17] was 1.19 µg/mL. The clearance [18] was 0.585 L/h/kg.

With `Cn1c(=O)n(C2CCC(=O)NC2=O)c2cccc(CN3CCC4(CC3)CN(CCN3CCC5(CC3)Cc3cc(NC(=O)c6cnn7cccnc67)c(N6CCC(CO)CC6)cc3O5)C4)c21` (centres undefined) the “inhibition (INH)” value [19] was 34%, the half-life at 1 µM [4] was 0.833 h and the half-life at 1 µM [9] was > 3.07 h. The half-life at 1 µM [20] was 0.7 h, the half-life at 1 µM [14] was 0.65 h and the Emax [15] was 95%. It also gave a DC50 [16] of 1.53 nM and a half-life at 1 µM [21] of 1.17 h.

With `Cn1c(=O)n(C2CCC(=O)NC2=O)c2cccc(C#CCO[C@H]3CC[C@H](CN4CCC5(CC4)Cc4cc(NC(=O)c6cnn7cccnc67)c(N6CCC(O)CC6)cc4O5)CC3)c21` (some centres undefined) the AUC(0-t) at 24 h [3] was 14.1 µg·h/mL, the half-life at 1 µM [4] was > 3.07 h and the AUClast [22] was 1.436 µg·h/mL. For the same molecule, the inhibition at 3 µM [23] was 35%, the Vd [24] was 3.69 L/kg and the half-life [6] was 3.82 h. It also gave a clearance [25] of 1.28 L/h/kg, a Vd [7] of 0.6 L/kg and an AUClast [26] of 3.395 µg·h/mL. For the same molecule, the Tmax [8] was 4 h, the half-life at 1 µM [9] was > 3.07 h and the F [27] was 15%. It also gave a Tmax [28] of 8 h, a half-life [10] of 2.76 h and a Cmax [11] of 2.78 µg/mL. For the same molecule, the half-life at 1 µM [20] was > 3.07 h, the bioavailability [12] was 59% and the AUC(0-t) at 24 h [13] was 42.1 µg·h/mL. For the same molecule, the half-life at 1 µM [14] was > 3.07 h, the Emax [15] was 87% and the DC50 [16] was 1.37 nM. For the same molecule, the half-life at 1 µM [21] was 1.07 h, the Cmax [29] was 0.352 µg/mL and the half-life [30] was 3.16 h. For the same molecule, the Cmax [31] was 0.696 µg/mL, the Cmax [17] was 3.49 µg/mL and the clearance [18] was 0.146 L/h/kg. The half-life [32] was 2.42 h.
